As usually defined, the IC50 is the concentration that gives 50% inhibition.

Each structure is given as a SMILES string. Activity calls are given as the source filed them. The calls are words filed in the database; no cut-off is given here. Where a SMILES comes first, the peptide text is derived from it. The star is where a group is joined. MeOSuc = COC(=O)CCC(=O)*; Cbz = O=C(OCc1ccccc1)*; CH2Cl = ClC*

The source of these data is ChEMBL document CHEMBL4706679, “Targeting Necrosis: Elastase-like Protease Inhibitors Curtail Necrotic Cell Death Both In Vitro and in Three In Vivo Disease Models” (J Med Chem, 2021).

Series [1] can be described thus: (§1) Inhibition KCN-induced elastase like activity in human U-937 cells at 0.01 to 100 uM using substrate MAAPV. The class given is cell-based.
Series [2] has as its system U-937. Described as §1. The class given is cell-based. The note with it: dose 0.01-100 µM.
For series [3], the system named is PC-12. Briefly: Protection against KCN-induced necrosis in […] cells assessed as reduction in KCN-induced cell death at 10 to 300 uM incubated for 5 hrs by LDH release assay. The class given is functional, cell-based. The note with it: dose 10-300 µM. (In general: LDH leaks from cells whose membrane has failed.)
The nature of series [4]: Toxicity in sham control C57BL/6J mouse at 100 ug, icv. The note with it: in vivo, icv_or_intrathecal, dose 100 µg.
The subject of series [5] is Mus musculus. Description: Protection against necrosis in C57BL/6J mouse model of traumatic brain injury assessed as decrease in neuronal damage in brain at 100 ug, icv measured 1 hr post injury by neurological severity score based analysis. The class given is functional, organism-based. The note with it: dose 100.0 µg.
Series [6] relates to Mus musculus. Briefly: Protection against necrosis in C57BL/6J mouse model of traumatic brain injury assessed as decrease in necrotic space in brains at 100 ug, icv measured 24 hrs post injury by TTC staining based analysis. The class given is functional. Also noted: scale not given: the % may be the effect or the level left. The note with it: dose 100 µg.
For series [7], the system named is U-937. Briefly: Inhibition anti-Fas antibody-induced elastase like activity in human U-937 cells at 100 uM by substrate gel electrophoresis. The class given is cell-based.
The test system of series [8] is U-937. Description: Inhibition oligomycin-induced elastase like activity in human U-937 cells at 100 uM by substrate gel electrophoresis. The class given is cell-based.
The subject of series [9] is Mus musculus. Briefly: Protection against necrosis in Balb/c mouse model of model of myocardial infarction/reperfusion assessed as reduction in infarct size at 30 mg/kg, iv followed by ischemia and reperfusion and subsequent second dosing at 30 mg/kg, iv and measured after 6 hrs post reperfusion by TTC staining based analysis. The class given is functional. Also noted: scale not given: the % may be the effect or the level left. The note with it: dose 60 mg/kg.

Series [10] concerns U-937. Description: Inhibition KCN-induced elastase like activity in human U-937 cells using substrate MAAPV. The class given is cell-based.
The test system of series [11] is PC-12. Briefly: Protection against KCN-induced necrosis in […] cells assessed as reduction in KCN-induced cell death at 20 to 100 uM incubated for 5 hrs by LDH release assay. The class given is functional, cell-based. The note with it: dose 20-100 µM.
Series [12] concerns Mus musculus. Description: Protection against necrosis in C57BL/6J mouse model of paracetamol-induced […] assessed as reduction in liver AST levels at 10 mg/kg, ip dosed 4 hrs after paracetamol injection and measured 24 hrs post paracetamol injection by. The note with it: time 28.0 hrs. The class given is functional, organism-based.
The test system of series [13] is Mus musculus. Description: Protection against necrosis in C57BL/6J mouse model of paracetamol-induced […] assessed as reduction in liver ALT levels at 10 mg/kg, ip dosed 4 hrs after paracetamol injection and measured 24 hrs post paracetamol injection by. The class given is functional, organism-based. The note with it: time 28.0 hrs.
For series [14], the system named is Mus musculus. Briefly: Protection against necrosis in C57BL/6J mouse model of paracetamol-induced […] assessed as reduction in liver GPT levels at 10 mg/kg, ip dosed 4 hrs after paracetamol injection and measured 24 hrs post paracetamol injection by. The class given is functional, organism-based. The note with it: time 28.0 hrs.
Series [15] concerns Mus musculus. Description: Protection against necrosis in C57BL/6J mouse model of paracetamol-induced […] assessed as reduction in liver AST levels at 30 mg/kg, ip dosed 4 hrs after paracetamol injection and measured 24 hrs post paracetamol injection by. The class given is functional. More on the design: scale not given: the % may be the effect or the level left. The note with it: time 28 hrs.

Series [16] relates to Mus musculus. Description: Protection against necrosis in C57BL/6J mouse model of paracetamol-induced […] assessed as reduction in liver ALT levels at 30 mg/kg, ip dosed 4 hrs after paracetamol injection and measured 24 hrs post paracetamol injection by. The class given is functional. More on the design: scale not given: the % may be the effect or the level left. The note with it: time 28 hrs.

Series [17] deals with Mus musculus. Description: Protection against necrosis in C57BL/6J mouse model of paracetamol-induced […] assessed as reduction in liver GPT levels at 30 mg/kg, ip dosed 4 hrs after paracetamol injection and measured 24 hrs post paracetamol injection by. The class given is functional. Also noted: scale not given: the % may be the effect or the level left. The note with it: time 28 hrs.

In series [18] the test system is Mus musculus. Description: Protection against necrosis in C57BL/6J mouse model of paracetamol-induced […] assessed as reduction in liver GOT levels at 30 mg/kg, ip dosed 4 hrs after paracetamol injection and measured 24 hrs post paracetamol injection by. The class given is functional. Also noted: scale not given: the % may be the effect or the level left. The note with it: time 28 hrs.

The subject of series [19] is Mus musculus. Description: Protection against necrosis in C57BL/6J mouse model of paracetamol-induced […] assessed as reduction in liver GOT levels at 10 mg/kg, ip dosed 4 hrs after paracetamol injection and measured 24 hrs post paracetamol injection by. The class given is functional, organism-based. The note with it: time 28.0 hrs.

With `COC(=O)CCC(=O)N[C@@H](C)C(=O)N[C@@H](C)C(=O)N1CCC[C@H]1C(=O)N[C@H](C(=O)CCl)C(C)C` (MeOSuc-AAPV-CH2Cl), in series [1], it took 2740 nM to reach half-maximal inhibition (IC50). Also, the inhibition result in [2] is “Dose-dependent effect”. The results for the Activity entry in series [3], in [4] and in series [6] were “Dose-dependent effect”, “Non-Toxic” and 50%, respectively. The outcome in series [5] was Active.

As for `Cc1ccc(S(=O)(=O)N[C@@H](Cc2ccccc2)C(=O)CCl)cc1`, the inhibition result in series [7] and in series [8] was “inactive” each time.

In the case of `CCC(=O)N1CCN=C1N1CCN(C)CC1`, in series [9], the Activity came out at 30%.

Take `CCOC(=O)[C@H]1O[C@@H]1C(=O)N[C@@H](CC(C)C)C(=O)NCCC(C)C`: in [10], the inhibition entry is “inactive”.

For the compound `O=C[C@H](Cc1ccc(O)cc1)NC(=O)[C@H](Cc1ccccc1)NC(=O)OCc1ccccc1` (Cbz-Phe-Tyr-aldehyde), the inhibition entry in series [10] was “inactive”.

Consider `CC(C)C[C@H](NC(=O)N[C@H](C(=O)N[C@@H](CCC(N)=O)C(=O)N[C@@H](C)C=O)C1CCNC(=N)N1)C(=O)O` (some centres undefined), for which the inhibition result in [7] and in [8] was “Active” throughout. Also, the outcome in series [3] was inactive.

As to `CC(C)(C)C(=O)Oc1ccc(S(=O)(=O)Nc2ccccc2C(=O)NCC(=O)O)cc1`, the Activity entry in series [11] was “Dose-dependent effect”.

For `CN1C(=O)Cc2ccc(-c3ccc(C[C@@H](C#N)NC(=O)[C@H]4N[C@@H]5CC[C@H]4C5)c(F)c3)cc21`, the Activity result in series [3] is “Dose-dependent effect”.

Turning to `O=C(c1csc(N2CCCCC2)n1)N1CCCC1`, the result in series [12], in series [13], in series [14] and in series [19] was Active. Further, the Activity in series [15], in series [16], in series [17] and in [18] was 100% throughout.
